# Results taken from publication PMC12670425, “Mechanistic Characterization of a Small Molecule as a Direct NLRP3 Inhibitor via Binding to the NACHT Domain” (Journal of Medicinal Chemistry, 2025).
# pIC50, pKd: −log10 of the molar value.
# Assays:
# NLRP3 inflammasome = molecular target: T1, NLRP3 inflammasome (Mus musculus, UniProt Q8R4B8); experiment: IL-1β production in J774A.1 cells upon NLRP3 inflammasome activation (ELISA); assay type: cell-based, murine; settings: for pIC50: LPS/ATP activation
# T1 construct: endogenous in cells; host or cells: J774A.1 murine macrophages (LPS- or Pam3CSK4-primed)
# Procedure: The levels of IL-1β and TNF-α in the supernatant were measured by ELISA.
# NLRP3, NEK7, ASC = molecular target: T2, NLRP3, NEK7, ASC (Mus musculus, UniProt Q8R4B8); experiment: Photoaffinity labeling and pull-down with YM-I-85 in LPS-primed J774A.1 cell lysates; assay type: binding, murine; settings: UV irradiation
# T2 construct: endogenous in cells; host or cells: J774A.1 murine macrophages (LPS- or Pam3CSK4-primed)
# Procedure: LPS-primed J774A.1 cells were lysed with NP-40 lysis buffer (50 mM Tris-HCl at pH 8, 150 mM NaCl, 1.0% NP-40, supplemented with cOmplete mini protease inhibitor cocktail) and centrifuged at 20,000g for 20 min at 4 °C. The supernatant was diluted to a concentration of 1.2 mg/mL and incubated with the competing compound for 1 h on ice, followed by incubation with YM-I-85 for 1 h on ice. Samples were irradiated at 365 nm for 15 min and then incubated with Streptavidin Agarose Resin (Thermo Fisher) overnight at 4 °C. The resins were washed once with 0.1% SDS in PBS and twice with 1% NP-40 in PBS before eluting with SDS-PAGE loading buffer and boiling. Beads were spun down, and the supernatants were analyzed by immunoblotting.
# NLRP3 [1] = molecular target: T3, NLRP3 (Mus musculus, UniProt Q8R4B8); experiment: Photoaffinity labeling of recombinant NLRP3 with YM-I-27 and NBD-Azide click, with competition; assay type: binding
# T3 construct: The recombinant full-length NLRP3 protein was expressed and purified as previously described using Expi293F cells; FLAG (N); host or cells: Expi293F
# Procedure: 30 μL aliquots of recombinant NLRP3 or a mixture of J774A.1 cell lysate and NLRP3 were incubated with or without YM-I-27 at the indicated concentrations at 37 °C for 30 min. The samples were then placed on ice and irradiated at 365 nm for 15 min. Subsequently, 1 μL of NBD-Azide (5 mM) or Biotin-PEG3-Azide (5 mM) was added to the samples, followed by the addition of 1 μL of CuSO4 (50 mM), tris(benzyltriazolylmethyl)-amine (TBTA) (30 mM), and tris(2-carboxyethyl)-phosphine (TCEP) (100 mM). The CuAAC reactions were agitated at room temperature for 1 h, and proteins were precipitated with prechilled methanol and left to dry. The protein pellets were then suspended in 30 μL of 2x SDS loading buffer and heated for 10 min at 95 °C. […] The Biotin-PEG3-Azide-labeled proteins were then transferred to membranes and analyzed by Western blotting using streptavidin-HRP and NLRP3 antibodies, respectively.
# NLRP3 [2] = molecular target: T3, NLRP3; experiment: In situ proteome click labeling in J774A.1 cell lysate spiked with NLRP3; assay type: binding, murine; settings: YM-I-27 3 and 10 μM; Biotin-PEG3-Azide click; J774A.1 lysate:NLRP3 20:1
# Procedure: 30 μL aliquots of recombinant NLRP3 or a mixture of J774A.1 cell lysate and NLRP3 were incubated with or without YM-I-27 at the indicated concentrations at 37 °C for 30 min. The samples were then placed on ice and irradiated at 365 nm for 15 min. Subsequently, 1 μL of NBD-Azide (5 mM) or Biotin-PEG3-Azide (5 mM) was added to the samples, followed by the addition of 1 μL of CuSO4 (50 mM), tris(benzyltriazolylmethyl)-amine (TBTA) (30 mM), and tris(2-carboxyethyl)-phosphine (TCEP) (100 mM). The CuAAC reactions were agitated at room temperature for 1 h, and proteins were precipitated with prechilled methanol and left to dry. The protein pellets were then suspended in 30 μL of 2x SDS loading buffer and heated for 10 min at 95 °C. The SDS-PAGE gels of NBD-Azide-labeled proteins were then washed with washing buffer (10% acetic acid, 40% methanol in water) for 2 h and imaged using ChemiDoc MP Imaging System (Bio-Rad) with Alexa Fluor 488 (λex = 490 nm, λem = 525 nm). The Biotin-PEG3-Azide-labeled proteins were then transferred to membranes and analyzed by Western blotting using streptavidin-HRP and NLRP3 antibodies, respectively.
# endogenous NLRP3 = molecular target: T4, endogenous NLRP3 (Mus musculus, UniProt Q8R4B8); experiment: Immunocytochemistry FRET assay in J774A.1 cells; assay type: cell-based, murine; settings: LPS-treated J774A.1 cells; TAMRA acceptor clicked to probe
# T4 construct: endogenous in cells; host or cells: J774A.1 murine macrophages (LPS- or Pam3CSK4-primed)
# Procedure: J774A.1 cells were treated with 1 μg/mL LPS for 4.5 h, and the photoactive probe (YM-I-27) was added and incubated for 30 min. Cells were irradiated at 365 nm for 30 min on ice and were fixed and permeabilized following the Immunofluorescence Microscopy procedures. The click reaction was performed in PBS containing TAMRA-N3 (30 μM), CuSO4 (800 μM), TBTA (500 μM), and TCEP (500 μM) at room temperature in the dark for 2.5 h. Cells were thoroughly washed with PBS and blocked by following the above procedures. Cells were then treated with anti-NLRP3 (cryo-2, 1:200) for 1.5 h, followed by Alexa Fluor 488-conjugated antimouse secondary antibody (Thermo Fisher, 4 μg/mL). Coverslips were mounted to slides, and data were acquired using a Zeiss LSM710 confocal microscope (Zeiss) and a 440 nm pulsed laser. The difference in the fluorescence lifetime was calculated by subtracting the median lifetime of Alexa Fluor 488 (donor) in the absence and presence of the YM-I-27 probe clicked with TAMRA (acceptor).
# TNF-α = TNF-α production in J774A.1 cells under LPS/nigericin (ELISA); assay type: cell-based, murine
# [3] = system: NLRP3 and pro-IL-1β expression; experiment: Western blot of LPS-induced NLRP3 and pro-IL-1β (priming stage) in J774A.1 cells; assay type: cell-based, murine; settings: YQ128 10 μM, curcumin 150 μM, MCC950 1 μM, LPS 1 μg/mL
# ASC specks = experiment: ASC speck formation by immunofluorescence in J774A.1 cells; assay type: cell-based, murine; settings: LPS/nigericin, YQ128 10 and 20 μM
# Procedure: J774A.1 cells were seeded onto poly-D-lysine-coated glass coverslips in a 12-well plate (1 × 10^6 cells/well) and cultured in their respective growth medium, allowing them to attach overnight at 37 °C. For ASC speck formation, cells were treated with 1 μg/mL LPS for 4.5 h with different doses of compound treatments during the last hour, followed by treatment with 10 μM nigericin for 1.5 h. Cells were fixed with 4% paraformaldehyde, permeabilized with 0.1% Triton X-100 in PBS, and then blocked with 1% BSA and 0.1% Tween-20 in PBS. […] Nuclei were stained with DAPI (2 μg/mL), and coverslips were mounted onto slides using Epredia Immuno-Mount (Fisher Scientific). Images were acquired using a Zeiss LSM700 confocal microscope (Zeiss).
# mitochondrial ROS = experiment: Mitochondrial ROS and integrity (MitoSOX/MitoTracker) in J774A.1 cells; assay type: cell-based, murine; settings: LPS/nigericin, YQ128 10 μM
# Procedure: J774A.1 cells (5 × 10^5 cells/mL) were plated in 12-well plates precoated with poly-L-lysine overnight. […] The supernatants were discarded, and the cells were washed with ice-cold PBS three times and fixed with 4% PFA in PBS for 15 min. DAPI (5 μg/mL) was used for nuclear staining. After that, the cells were washed with PBS three times, and fluorescence microscopy analyses were carried out using an Olympus IX73.
# Figure S2. J774A.1 were primed with LPS (1 μg/mL) for 4.5 h and treated with or […]
# h. Cells were stained with MitoSOX and MitoTracker red. Nuclei were stained with […]
# Figure S3. YQ128 (A&B) and MCC950 (C&D) dose-dependently block the recognition of NLRP3 by D4D8T antibody. […]
# [4] = system: caspase-1 and GSDMD cleavage; experiment: Western blot of cleavage of caspase-1 and GSDMD in J774A.1 cells; assay type: cell-based, murine; settings: LPS 10 μg/mL/nigericin 10 μM
# Procedure: J774A.1 cells were seeded into a 24-well plate at 0.6 × 10^6 cells/well and allowed to attach overnight at 37 °C. For the priming, cells were treated with compounds for 1 h, followed by 1 μg/mL LPS treatment for 4.5 h. Cells were lysed in RIPA buffer, and cell lysates were analyzed by immunoblotting. For the activation, cells were treated with 10 μg/mL LPS for 4.5 h. Compounds were added during the last hour of LPS treatment. Then, cells were treated with 10 μM nigericin for 1 h. Cells were lysed in RIPA buffer, and cell lysates were analyzed by immunoblotting.
# Protein samples were prepared with 4x Laemmli sample buffer (Bio-Rad) supplemented with β-mercaptoethanol, followed by boiling for 5–10 min. Samples were then resolved by SDS-PAGE and dry-transferred to poly­(vinyl difluoride) (PVDF) membranes using a Trans-Blot Turbo transfer system (Bio-Rad). Membranes were blocked in 5% (w/v) dried milk or BSA in TBS (Bio-Rad) supplemented with 0.1% (v/v) Tween-20 (TBS-T) for 1 h at room temperature or overnight at 4 °C. Membranes were then incubated with primary antibody, followed by a horseradish peroxidase (HRP)-conjugated secondary antibody, each diluted in 5% (w/v) dried milk or BSA in TBS-T for 1–2 h at room temperature or overnight at 4 °C. Membranes were developed with Clarity Western ECL substrate (Bio-Rad) and visualized for chemiluminescence using an Amersham Imager 680. […]
# [5] = molecular target: T5, recombinant human NLRP3 protein (Homo sapiens, UniProt Q96P20); experiment: Microscale thermophoresis (MST); assay type: binding; settings: n = 3
# T5 construct: The recombinant full-length NLRP3 protein was expressed and purified as previously described using Expi293F cells; 10His (N); 6His (C); made in house; host or cells: Expi293F
# Procedure: The binding affinity was measured with a Monolith NT.Automated instrument as described previously. Recombinant human NLRP3 protein (500 nM) was labeled with 50 nM RED-tris-NTA dye (NanoTemper Technologies, MO-L018). […] The samples were loaded into NanoTemper glass capillaries, and thermophoresis curves were analyzed using the instrument.
# NLRP3 NACHT domain = molecular target: T6, NLRP3 NACHT domain (Homo sapiens, UniProt Q96P20); experiment: Surface plasmon resonance (SPR); assay type: binding; settings: biotinylated NACHT protein; single-cycle kinetics, 1:1 model
# T6 construct: (K131-L679)-Avi plasmid; 8His-Strep II-ZZ-TEV site (N, cleaved yes); made in house; host or cells: Sf21 insect cells (baculovirus)
# Procedure: Human biotinylated-NACHT domain of NLRP3 was expressed in Sf21 insect cells using the pFastBac1–8His-Strep II-ZZ-TEV-NLRP3­(K131-L679)-Avi plasmid. For protein expression, 1.6 L of insect cells were cultured with a viral stock of the second passage for 48 h at 27 °C. Cells were collected, lysed in lysis buffer (50 mM HEPES pH 7.5, 500 mM NaCl, 10% glycerol, 1 mM MgCl2, 1 mM TCEP, 100 μM ATP) and centrifuged at 16,000 rpm for 60 min. The supernatant was loaded onto a Ni Bestarose FF column and eluted with lysis buffer containing 300 mM imidazole. The sample was biotinylated in a tube containing BirA enzyme (1:100 (w/w) to protein) with biotin buffer and TEV protease (1:10 (w/w) to protein), and the reaction was incubated at 4 °C overnight. The sample was collected and eluted with a lysis buffer containing 75 mM biotin from Strep-Tactin XT columns. The biotinylated NACHT protein was further purified with HiLoad 16/600 Superdex 200 pg column with an elution buffer (50 mM HEPES pH 7.5, 500 mM NaCl, 10% glycerol, 1 mM MgCl2, 1 mM TCEP).
# SPR experiments were performed on a Biacore 1K system with streptavidin sensor chip (Series S Sensor Chip SA, Cytiva) according to the reported procedure. The system was flushed with running buffer (10 mM HEPES, pH 7.4, 150 mM NaCl, 0.5 mM ADP, 0.5 mM TCEP, 2 mM MgCl2, 0.05% Tween 20, 2% DMSO). […]
# [6] = system: full-length NLRP3, PYD-NACHT fragment, PYD fragment; experiment: Drug affinity responsive target stability (DARTS); assay type: binding, human; settings: YQ128 50 μM; 50–200 ng Pronase per μg protein
# Procedure: Then, 0.1 mg/mL Pronase (Sigma-Aldrich) was added at the protease to protein ratio, between 50 and 200 ng Pronase per μg of protein for 7.5–30 min at room temperature. The reaction was stopped by the addition of a 20x protease inhibitor cocktail and incubated on ice for 10 min. Protein samples were analyzed by immunoblotting.
# caspase-1 = molecular target: T7, caspase-1 (Homo sapiens, UniProt P29466); experiment: In vitro caspase-1 cleavage assay (recombinant YTHDF2 substrate); settings: recombinant caspase-1; YQ128 1, 3 and 10 μM
# T7 sequence (P29466 120-297 limits assumed): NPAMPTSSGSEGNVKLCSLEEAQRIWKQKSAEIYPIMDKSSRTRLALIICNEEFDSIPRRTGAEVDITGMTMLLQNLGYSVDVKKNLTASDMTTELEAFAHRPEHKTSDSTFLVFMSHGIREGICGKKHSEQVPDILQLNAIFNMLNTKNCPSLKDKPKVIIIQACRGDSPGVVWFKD
# T7 sequence (P29466 317-404 limits assumed): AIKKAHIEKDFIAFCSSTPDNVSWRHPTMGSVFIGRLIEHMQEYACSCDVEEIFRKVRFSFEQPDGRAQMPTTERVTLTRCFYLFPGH
# Procedure: The reactions were then terminated by boiling in 2× SDS sample buffer, and the samples were analyzed by Western blotting.
# T3 sequence (Q8R4B8 whole entry): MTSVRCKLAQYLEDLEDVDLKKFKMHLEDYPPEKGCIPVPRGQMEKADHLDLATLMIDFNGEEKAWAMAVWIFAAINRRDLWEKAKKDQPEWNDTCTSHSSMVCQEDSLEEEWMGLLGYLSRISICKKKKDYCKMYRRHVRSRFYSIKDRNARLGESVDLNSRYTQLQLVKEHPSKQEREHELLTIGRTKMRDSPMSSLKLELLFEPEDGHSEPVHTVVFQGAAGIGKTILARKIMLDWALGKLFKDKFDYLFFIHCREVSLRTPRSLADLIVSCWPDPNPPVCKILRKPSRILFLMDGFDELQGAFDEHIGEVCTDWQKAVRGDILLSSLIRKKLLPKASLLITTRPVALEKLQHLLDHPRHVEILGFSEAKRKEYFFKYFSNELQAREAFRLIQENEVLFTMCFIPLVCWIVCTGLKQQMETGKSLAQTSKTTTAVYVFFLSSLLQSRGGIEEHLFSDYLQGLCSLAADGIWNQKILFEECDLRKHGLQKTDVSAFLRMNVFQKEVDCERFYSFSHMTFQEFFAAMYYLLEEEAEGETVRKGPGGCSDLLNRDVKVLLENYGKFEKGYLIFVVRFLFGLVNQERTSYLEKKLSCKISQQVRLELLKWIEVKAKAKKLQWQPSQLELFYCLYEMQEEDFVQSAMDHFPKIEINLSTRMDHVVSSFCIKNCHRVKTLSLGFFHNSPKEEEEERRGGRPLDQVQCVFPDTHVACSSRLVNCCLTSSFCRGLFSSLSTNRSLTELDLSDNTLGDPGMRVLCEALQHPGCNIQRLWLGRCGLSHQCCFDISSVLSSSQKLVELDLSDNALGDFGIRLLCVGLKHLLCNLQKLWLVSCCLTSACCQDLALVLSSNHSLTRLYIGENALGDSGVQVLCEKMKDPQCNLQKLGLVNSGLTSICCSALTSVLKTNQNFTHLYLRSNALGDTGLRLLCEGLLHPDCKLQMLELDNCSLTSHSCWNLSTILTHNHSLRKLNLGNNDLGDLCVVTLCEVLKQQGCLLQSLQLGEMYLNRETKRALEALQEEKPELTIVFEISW
# T6 sequence (Q96P20 131-679): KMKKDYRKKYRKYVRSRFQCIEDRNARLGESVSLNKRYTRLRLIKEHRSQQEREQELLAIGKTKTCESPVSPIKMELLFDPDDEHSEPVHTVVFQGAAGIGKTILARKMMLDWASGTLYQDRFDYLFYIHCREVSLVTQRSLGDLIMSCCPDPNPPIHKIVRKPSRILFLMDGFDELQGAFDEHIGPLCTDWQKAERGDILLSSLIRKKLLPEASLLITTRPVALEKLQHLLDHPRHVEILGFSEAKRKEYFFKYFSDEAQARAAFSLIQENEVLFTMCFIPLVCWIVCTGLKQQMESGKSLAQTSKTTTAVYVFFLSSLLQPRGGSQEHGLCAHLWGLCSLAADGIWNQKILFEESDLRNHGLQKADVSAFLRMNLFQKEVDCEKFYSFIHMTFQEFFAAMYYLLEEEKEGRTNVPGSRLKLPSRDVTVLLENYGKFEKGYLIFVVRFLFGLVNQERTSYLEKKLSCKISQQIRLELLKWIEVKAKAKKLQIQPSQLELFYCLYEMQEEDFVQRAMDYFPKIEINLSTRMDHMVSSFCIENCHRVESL
# T5 sequence (Q96P20 whole entry): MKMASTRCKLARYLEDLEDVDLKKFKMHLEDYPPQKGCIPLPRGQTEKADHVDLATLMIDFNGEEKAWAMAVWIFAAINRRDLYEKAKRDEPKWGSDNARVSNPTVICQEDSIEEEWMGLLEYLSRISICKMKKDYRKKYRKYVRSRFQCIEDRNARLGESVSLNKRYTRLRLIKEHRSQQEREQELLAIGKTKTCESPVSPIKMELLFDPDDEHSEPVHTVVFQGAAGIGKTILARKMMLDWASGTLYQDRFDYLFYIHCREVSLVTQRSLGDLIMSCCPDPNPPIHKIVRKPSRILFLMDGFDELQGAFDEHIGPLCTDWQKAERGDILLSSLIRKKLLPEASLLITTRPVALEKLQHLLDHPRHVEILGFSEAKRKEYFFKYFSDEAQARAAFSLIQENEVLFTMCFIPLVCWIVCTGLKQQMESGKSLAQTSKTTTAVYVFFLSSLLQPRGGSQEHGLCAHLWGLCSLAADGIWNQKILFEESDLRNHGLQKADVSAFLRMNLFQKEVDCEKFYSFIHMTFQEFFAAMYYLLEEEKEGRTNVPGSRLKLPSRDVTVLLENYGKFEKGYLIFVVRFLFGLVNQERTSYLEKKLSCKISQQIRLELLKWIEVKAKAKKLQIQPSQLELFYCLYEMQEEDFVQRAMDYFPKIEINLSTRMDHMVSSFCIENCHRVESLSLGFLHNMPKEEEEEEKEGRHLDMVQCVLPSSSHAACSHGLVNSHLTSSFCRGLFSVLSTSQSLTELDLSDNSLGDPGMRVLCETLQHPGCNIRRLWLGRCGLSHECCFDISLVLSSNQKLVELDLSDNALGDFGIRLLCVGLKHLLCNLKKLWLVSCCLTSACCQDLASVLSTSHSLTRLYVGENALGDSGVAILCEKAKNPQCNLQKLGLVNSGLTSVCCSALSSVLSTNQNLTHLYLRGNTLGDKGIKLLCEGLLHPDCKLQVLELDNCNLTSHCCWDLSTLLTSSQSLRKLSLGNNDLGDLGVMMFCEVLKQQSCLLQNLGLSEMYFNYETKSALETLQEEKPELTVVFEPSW
smiles,measurement,setting,value
C#CCNS(=O)(=O)c1ccc(CCN(Cc2cc(Cl)ccc2OCCC2(CCc3cn(CCOCCOCCNC(=O)CCCCC4SCC5NC(=O)NC54)nn3)N=N2)C(=O)Cc2ccsc2)cc1 (centres unmarked) [YM-I-85],pIC50,NLRP3 inflammasome,5.62
same,potency relative to YQ128 (fold less),"NLRP3 inflammasome; LPS/ATP, IL-1β",~8 fold
same,"photoaffinity labeling of proteins by probe (pull-down, Western blot)","NLRP3, NEK7, ASC",efficiently labeled NLRP3 and NEK7 in a dose-dependent manner but not ASC
C#CCCC1(CCOc2ccc(Cl)cc2CN(CCc2ccc(S(=O)(=O)NCC#C)cc2)C(=O)Cc2ccsc2)N=N1 [YM-I-27],pIC50,NLRP3 inflammasome,6.30
same,labeling of recombinant NLRP3 protein by probe,"NLRP3 [1]; UV cross-linking, NBD-N3 click, fluorescent visualization",dose-dependently labeled the NLRP3 protein
same,in situ proteome labeling,NLRP3 [2],successfully and efficiently recognized NLRP3 along with four other proteins
same,decrease of emission lifetime of Alexa Fluor 488 (FRET donor),endogenous NLRP3,~44 ps
"O=C(O)c1ccc(/C=C2/SC(=S)N(Cc3cccc(C(F)(F)F)c3)C2=O)cc1 [CY-09, reference compound]",competition of YM-I-27 labeling of NLRP3,NLRP3 [1]; recombinant NLRP3 preincubated with competitor,completely blocked the interaction
C#CCNS(=O)(=O)c1ccc(CCN(Cc2cc(Cl)ccc2OCCC)C(=O)Cc2ccsc2)cc1 [YQ128],production of TNF-α,TNF-α,No inhibition
same,levels of LPS-induced pro-IL-1β and NLRP3,[3],neither YQ128 nor MCC950 changed the levels
same,formation of ASC specks,ASC specks,significantly suppressed the formation of ASC specks
same,production of mitochondrial ROS and integrity,mitochondrial ROS,no significant effect
same,cleavage of caspase-1 and GSDMD,[4],inhibitory effect
same,pKd,[5],6.93
same,pKd,NLRP3 NACHT domain,6.78
same,Pronase digestion pattern (DARTS),[6],"the digestion pattern of the full-length NLRP3 and the PYD-NACHT fragment, but not the PYD fragment, by Pronase was altered"
same,catalytic activity of caspase-1,caspase-1,does not interfere with the catalytic activity of caspase-1
